US20080124338A1, “METHODS FOR TREATMENT OF INFLAMMATORY DISEASE AND CHLAMYDIA INFECTIOUS DISEASE” (The Scripps Research Institute, priority 2006, published 2008)
“Also recorded” adds a separate entry of the source. Peptide text beside a SMILES is read from it. * marks the point of attachment. Cbz = O=C(OCc1ccccc1)*

Columns and labels:
[1] = system: proteasomal degradation; assay: Detection of p22 cleavage product in cells treated with MG-132; type: cell-based; settings: Chlamydia-infected cells treated with MG-132; data not shown
From the text: The cleavage of p65 was confirmed by the detection of a 22 kDa fragment with a C-terminus specific antibody against p65 (FIG. 1C). […] The 40 kDa fragment was further characterized with MALDI proteomics. Thus, 293T cells, transfected for GST-p65 protein expression, were infected with LGV2 for 28 hr. After purification, the cleavage product was subjected to trypsin digestion followed by MALDI TOF identification. Seven proteolytic fragments were detected, which covered the N-terminal GST tag and the RHD region of p65 (supplemental data).
Western blots. Except as noted, extracts were prepared by lysis of cells with a buffer containing 143 mM NaCl, 50 mM Tris-HCl (pH 7.5), 1 mM DTT, 1% NP-40, 0.1% SDS and protease inhibitors (Roche). Soluble proteins were separated by SDS-PAGE or Tris-Glycine gels (Novex). Blots were probed with specific antibodies. Horseradish peroxidase conjugated secondary antibodies (Sigma) and ECL reagent kit (Pierce) were used for detection.

[2] = system: Chlamydia trachomatis LGV2; assay: p65 cleavage in Chlamydia-infected cells treated with antibiotics (immunoblotting); type: cell-based; settings: rifampin 0.1 μg/ml, chloramphenicol 60 μg/ml, penicillin G 100 μg/ml, FIG. 1E
Protocol: A. Hela 229 cells were infected with Chlamydia trachomatis LGV2 at 1 IFU/cell for varying times, or with invasive (wt) or invasion-defective (mut) Salmonella typhimurium for 2 hr. IκBα expression and degradation were detected by immunoblotting analyses. TNFα (10 ng/ml) was used as a positive control. B. Hela 229 cells were infected with LGV2 at 1 IFU/cell for 2, 16 and 24 hr. The cytosolic (C) and nuclear (N) fractions were separated and redistribution of p65/RelA was detected by immunoblotting analysis. The expression of lamin A and β-tubulin were used as loading controls for nuclear and cytosolic fractions, respectively. C. Whole cell lysates from Chlamydia-infected cells were separated by SDS-PAGE and cleavage of p65 was detected with an N- or C-terminus specific antibody against p65. D. Selective cleavage of p65 by Chlamydia infection. The expression of NF-κB pathway signaling molecules in Chlamydia-infected and non-infected control cells was determined by immunoblotting analysis. E. Inhibition of Chlamydia growth blocks p65 cleavage. The infected cells were treated with rifampin (Rif, 0.1 μg/ml) or chloramphenicol (Chl, 60 μg/ml), reagents that inhibit Chlamydia growth by blocking transcription or translation, respectively. […] The expression of β-tubulin or Erk2/MAPK was used as loading controls. All experiments were performed at least 3 times.
Infection assays. […]

[3] = system: p65 cleavage activity of Chlamydia; assay: In vitro p65 cleavage assay with solubilized chlamydial EB proteins; type: biochemical; settings: 37° C. for 60 min; inhibitor added 30 min prior to p65; EDTA 5 mM, lactacystin 10 μM; FIG. 2C
Protocol: Purified Chlamydia EB was solubilized with a buffer containing 1% NP-40. […] The graph represents the rates of p65 disappearance and p40 appearance in the same reaction. C. […] In parallel experiments, protease inhibitors were included in the in vitro p65 cleavage assay. […] Lane 4: Roche protease inhibitor cocktail at 10×; Lane 5: heat-inactivated EB; Lane 6: EDTA at 5 mM; Lane 7: Lactacystin at 10 μM; Lane 8: MG132 at 20 μM; Lane 9: TPCK at 20 μM; and Lane 10: TLCK at 20 μM. The presence of the chlamydial major outer membrane protein (MOMP) was used as a measure of EB protein input (lower panel).
In vitro p65 cleavage assays. Gradient purified chlamydial EB were solubilized with Tris-buffered saline, supplemented with 1% NP-40. The soluble proteins were collected and used for p65 cleavage assays. […] For inhibition assays, an inhibitor was added 30 min prior to the addition of p65 protein. All assays were performed at 37° C. for 60 min or as otherwise indicated.

[4] = system: IκBα; assay: IκBα degradation in Hela 229 cells (immunoblotting); type: cell-based; settings: TNFα 10 ng/ml, positive control, FIG. 1A
From the text: The host inflammatory response to bacterial infection or proinflammatory cytokine and LPS stimulation is mediated by NF-κB activity, which is regulated by the selective degradation of IκB proteins. Karin and Ben-Neriah, Annu. Rev. Immunol 18: 621, 2000; Richmond, Nat. Rev. Immunol 2: 664, 2002. To investigate whether Chlamydia targeted the NF-κB pathway to interfere with host inflammatory response, we first examined the integrity of IκBα, a regulatory molecule of NF-κB activation. To this end, monolayers of Hela 229 cells were infected with C. trachomatis LGV2 at 1 inclusion forming unit per cell (1 IFU/cell) for varying time points. Lad et al., J Immunol 174: 7186, 2005. […]
A. Hela 229 cells were infected with Chlamydia trachomatis LGV2 at 1 IFU/cell for varying times, or with invasive (wt) or invasion-defective (mut) Salmonella typhimurium for 2 hr. IκBα expression and degradation were detected by immunoblotting analyses. […] The cytosolic (C) and nuclear (N) fractions were separated and redistribution of p65/RelA was detected by immunoblotting analysis. […] Whole cell lysates from Chlamydia-infected cells were separated by SDS-PAGE and cleavage of p65 was detected with an N- or C-terminus specific antibody against p65. […] The expression of NF-κB pathway signaling molecules in Chlamydia-infected and non-infected control cells was determined by immunoblotting analysis. […]

[5] = system: NF-κB; assay: pIL8-luciferase reporter gene assay in 293T cells; type: cell-based, human; settings: TNFα 10 ng/ml, FIG. 3C, 3D
Protocol: (§1) We therefore investigated whether expression of CT441 interfered with NF-κB signal transduction. To this end, 293T cells were transfected with pIL8-luciferase (Kim et al., Cancer Res 65: 8784, 2005) and a plasmid for CT441 expression. The cells were then treated with TNFα to induce luciferase expression. In parallel experiments, we also included a mouse cell line for control purposes since murine p65 is resistant to cleavage by Chlamydia infection. […] The p40 cleavage product (amino acid residues 1-351) was then investigated for its inhibitory effect on TNFα-induced NF-κB activation.
(§2) A. Putative chlamydial proteases were expressed as N-terminal HA-tagged proteins in 293T cells and screened for their ability to cleave p65. […] 441, 494, 823 and 858 represent chlamydial CT441, CT494, CT823, and CT858, respectively. […] Monolayers of 293T or NIH3T3 cells were co-transfected with pIL8-Luc (Kim et al., Cancer Res 65: 8784, 2005) and a plasmid for the expression of chlamydial protease CT441 or the p40 cleavage product of p65. pSV40-RL was included as an internal control for transfection reactions. The cells were treated with TNFα (10 ng/ml) 18 hr post transfection to induce luciferase expression. Luciferase activities were determined with a Dual-Glo reagent kit (Promega) 18 hr after TNFα treatment. The ratio of firefly and Renilla luciferase activities (FL/RL) was plotted. […]

[6] = system: NF-κB; assay: pIL8-luciferase reporter gene assay in NIH3T3 cells; type: cell-based, mouse; settings: TNFα 10 ng/ml, FIG. 3C
Protocol: as §1, §2

[7] = system: p65; assay: Expression of putative chlamydial proteases in 293T cells, cleavage of endogenous p65 (Western blot); type: cell-based, human; settings: N-terminal HA-tagged proteins expressed in 293T cells; FIG. 3A, 3B
From the text: The chlamydial genome encodes 16 proteases (Stephens et al., Science 282: 754, 1998), including four putative proteases that contain a leader sequence for periplasmic secretion and potential translocation by the chlamydial type III secretory system. The mature peptides of those putative proteases were therefore screened for their ability to cleave p65 after expression in 293T cells. […] CT441 encodes a tail-specific protease (Tsp) that is well conserved among Chlamydia species.
as §2, with “plotted. All transfections were performed in duplicate and the data are presented as means +/− error.” for “plotted.”

## CC(C)C[C@@H](C=O)NC(=O)[C@H](CC(C)C)NC(=O)[C@H](CC(C)C)NC(=O)OCc1ccccc1 [MG-132] (Cbz-Leu-Leu-Leu-aldehyde)
[1]
  detection of p22: Enhanced detection of p22

## O=C(N[C@H](CO)[C@H](O)c1ccc([N+](=O)[O-])cc1)C(Cl)Cl [chloramphenicol]
[2]
  Chlamydia cleavage of p65: blocked

## CC(=O)N[C@@H](CSC(=O)[C@]1([C@@H](O)C(C)C)NC(=O)[C@H](C)[C@@H]1O)C(=O)O [lactacystin]
[3]
  p65 cleavage activity of Chlamydia (solubilized EB proteins): inhibited p65 cleavage activity

## CO[C@H]1/C=C/O[C@@]2(C)Oc3c(C)c(O)c4c(O)c(c(/C=N/N5CCN(C)CC5)c(O)c4c3C2=O)NC(=O)/C(C)=C\C=C\[C@H](C)[C@H](O)[C@@H](C)[C@@H](O)[C@@H](C)[C@H](OC(C)=O)[C@@H]1C [rifampin]
[2]
  Chlamydia cleavage of p65: blocked

## TNFα
[4]
  IκBα degradation: caused IκBα degradation

B1: CT441: Chlamydia trachomatis tail-specific protease, SEQ ID NO:2 (protein, listed as Chlamydia trachomatis)
chain: MMRFARFCLLVLTLFPQLAFSAEPLRRQDVRKTVDKLVEHHIDTQQISPYILSRSLEDYVRSFDSHKAYLTQDEVFSHAFSEEATRPLFKQYQEDNFSSFKELDTCIQQSISRAREWRSSWLTDSIRVIQDAMSHTIEKKPSAWASSIEEVKQRQYDLLLSYASIYLEDAAKNRYQGKEHALVKLCIRQIENHENPYIGINDHGYRMSPEEEANSFHVRIIKSIAHSLDAHTAYFSQEEALSMRAQLEKGMCGIGVVLKEDIDGVVVKEVLAGGPADKTGSLRVGDIIYRVNGKNIENTPFPGVLDSLRGSPGSSVTLDIHRQNNDHVIQLRREKILLDSRRVDVSYEPYGNGIIGKITLHSFYEGENQVSSEQDLRKAIRELQEKNLLGLVLDIRENTGGFLSQAIKVSGLFLTNGVVVVSRYADGSVKRYRTISPQKFYDGPLAVLVSKSSASAAEIVAQTLQDYGVALIVGDQQTYGKGTIQHQTITGSNSQEDFFKVTVGRYYSPSGKSTQLEGVKSDIVIPSRYAEDKLGERFLEYALPADQYENVINDNLGDLDINIRPWFQKYYSPHLQKPELVWREMLPQLAHNSQERLEKNKNFEIFVQHLKKTNKQDRSFGSNDLQMEESVNIVKDMILLKSIS
[5]
  TNFα-induced luciferase activity (NF-κB activation): inhibited TNFα-induced luciferase activity; also recorded: inhibited NF-κB activity
[6]
  TNFα-induced luciferase expression: showed no effect
[7]
  p65 cleavage after expression in 293T cells: caused p65 cleavage; also recorded: resulted in selective cleavage of p65

B2: CT858: chlamydial protease detected during an infection but not in purified EB (protein)
chain: MKMNRIWLLLLTFSSAIHSPVQGESLVCKNALQDLSFLEHLLQVKYAPKTWKEQYLGWDLVQSSVSAQQKLRTQENPSTSFCQQVLADFIGGLNDFHAGVTFFAIESAYLPYTVQKSSDGRFYFVDIMTFSSEIRVGDELLEVDGAPVQDVLATLYGSNHKGTAAEESAALRTLFSRMASLGHKVPSGRTTLKIRRPFGTTREVRVKWRYVPEGVGDLATIAPSIRAPQLQKSMRSFFPKKDDAFHRSSSLFYSPMVPHFWAELRNHYATSGLKSGYNIGSTDGFLPVIGPVIWESEGLFRAYISSVTDGDGKSHKVGFLRIPTYSWQDMEDFDPSGPPPWEEFAKIIQVFSSNTEALIIDQTNNPGGSVLYLYALLSMLTDRPLELPKHRMILTQDEVVDALDWLTLLENVDTNVESRLALGDNMEGYTVDLQVAEYLKSFGRQVLNCWSKGDIELSTPIPLFGFEKIHPHPRVQYSKPICVLINEQDFSCADFFPVVLKDNDRALIVGTRTAGAGGFVFNVQFPNRTGIKTCSLTGSLAVREHGAFIENIGVEPHIDLPFTANDIRYKGYSEYLDKVKKLVCQLINNDGTIILAEDGSF
modifications: left off: small tags and cut ends
notes: chlamydial protease detected during an infection but not in purified EB
[7]
  p65 cleavage after expression in 293T cells: did not exhibit p65 cleavage activity

B3: p40: N-terminal p40 cleavage product of p65/RelA, amino acid residues 1-351 of SEQ ID NO:1 (protein, listed as Homo Sapiens)
chain: MDELFPLIFPAEPAQASGPYVEIIEQPKQRGMRFRYKCEGRSAGSIPGERSTDTTKTHPTIKINGYTGPGTVRISLVTKDPPHRPHPHELVGKDCRDGFYEAELCPDRCIHSFQNLGIQCVKKRDLEQAISQRIQTNNNPFQVPIEEQRGDYDLNAVRLCFQVTVRDPSGRPLRLPPVLPHPIFDNRAPNTAELKICRVNRNSGSCLGGDEIFLLCDKVQKEDIEVYFTGPGWEARGSFSQADVHRQVAIVFRTPPYADPSLQAPVRVSMQLRRPSDRELSEPMEFQYLPDTDDRHRIEEKRKRTYETFKSIMKKSPFSGPTDPRPPPRRIAVPSRSSASVPKPAPQPYPF
modifications: Myc tag
[5]
  TNFα-induced luciferase activity (NF-κB activation): inhibited luciferase expression; also recorded: inhibited NF-κB activity
